Results on 1 compound are retold here after publication PMC10051608, “Multi-Compartmental Dissolution Method, an Efficient Tool for the Development of Enhanced Bioavailability Formulations Containing Poorly Soluble Acidic Drugs” (Pharmaceutics, 2023).

Converted amounts (≈) assume the structure as drawn.

The conditions of series [1]: literature data measured at 25 °C; cited from earlier work.
Series [2] is described as follows: pH-dependent equilibrium solubility, saturation shake-flask method in Britton-Robinson buffers and 1 M NaOH. The settings on record: 37 °C; for solubility thermodynamic at 6 h: aqueous buffer, thermodynamic from solid, mean of 3, read-out: SpH ± SD. The series is classed as physicochemical.
Method: The saturation shake–flask method was used to determine the equilibrium solubility of the API [34, 35]. The measurements were carried out at 37 ± 0.1 °C. […] In case it was necessary, the pH was adjusted to the initial value with 1M NaOH solution after 1 h. The flasks were then placed in a GFL 1092 type shaking water bath (GFL GmbH, Burgwedel, Germany) and shaken at 150 rpm for 6 h. The agitation phase was followed by 18 h sedimentation at controlled temperature. A total of 3 aliquot (10–100 µL) samples were then taken from the saturated solution and diluted to the required extent (2–250x) with the tested medium. The concentration was measured by UV spectroscopy at λmax: 264 nm. […] In each medium, the solubility experiments were performed in triplicate.
A short description of series [3]: Equilibrium solubility in biorelevant media, saturation shake-flask method. The series is classed as physicochemical. The settings on record: for solubility thermodynamic at 6 h: thermodynamic from solid, read-out: SpH ± SD; for increase in solubility: biorelevant media.
Method: The saturation shake–flask method was used to determine the equilibrium solubility of the API [34, 35]. The measurements were carried out at 37 ± 0.1 °C. […] In case it was necessary, the pH was adjusted to the initial value with 1M NaOH solution after 1 h. The flasks were then placed in a GFL 1092 type shaking water bath (GFL GmbH, Burgwedel, Germany) and shaken at 150 rpm for 6 h. The agitation phase was followed by 18 h sedimentation at controlled temperature. A total of 3 aliquot (10–100 µL) samples were then taken from the saturated solution and diluted to the required extent (2–250x) with the tested medium. The concentration was measured by UV spectroscopy at λmax: 264 nm. […] In each medium, the solubility experiments were performed in triplicate. […] The equilibrium solubility was also investigated in biorelevant media modelling gastric and small intestinal fluid in a fasted and fed state with and without solubilizing agents (pepsin or lecithin and bile acid salts). The tested biorelevant media were Blank FaSSGF, FaSSGF, Blank FaSSIF, FaSSIF, FeSSGF-acetate (without milk), Blank FeSSIF, and FeSSIF.

`CC(C)Cc1ccc(C(C)C(=O)O)cc1` (stereo not drawn) [ibuprofen]: the “intrinsic solubility logS0” value in series [1] is reported as −3.62. The solubility thermodynamic at 6 h worked out at 0.0708 ± 0.003 mg/mL (≈ 0.343 mM) in series [2] (BR (Britton-Robinson) buffer, pH 1.92 (nominal pH 2.0) BR buffer); 0.124 ± 0.013 mg/mL (≈ 0.601 mM) in series [2] (BR (Britton-Robinson) buffer, pH 3.96 BR buffer); 1.91 ± 0.07 mg/mL (≈ 9.26 mM) in series [2] (BR (Britton-Robinson) buffer, pH 5.95 BR buffer); 32 mg/mL (≈ 155 mM) in series [2] (BR (Britton-Robinson) buffer, pH 7.17 BR buffer); 300 mg/mL (≈ 1450 mM) in series [2] (BR (Britton-Robinson) buffer, pH 8.02 BR buffer); 734 mg/mL (≈ 3560 mM) in series [2] (pH 14, 1 M NaOH). The solubility thermodynamic at 6 h was found to be 194 ± 2 µg/mL (≈ 0.94 mM) in series [3] (FeSSGF-acetate (without milk), fassgf or other biorelevant, FeSSGF-acetate, pH 4.5, 37 °C); 416 ± 12 µg/mL (≈ 2.02 mM) in series [3] (fassgf or other biorelevant, FeSSIF blank, pH 5.0, 37 °C); 3160 ± 31 µg/mL (≈ 15.3 mM) in series [3] (FaSSIF, pH 6.5, 37 °C); 2100 ± 56 µg/mL (≈ 10.2 mM) in series [3] (FeSSIF, pH 5.0, 37 °C). The logSpH in series [2] (pH 1.92 (nominal pH 2.0) BR buffer) is given as −3.46 mol/L; in series [2] (pH 3.96 BR buffer), −3.22 mol/L; in series [2] (pH 5.95 BR buffer) it was −2.03 mol/L; in series [2] (pH 7.17 BR buffer), −0.81 mol/L; in series [2] (pH 8.02 BR buffer), 0.16 mol/L; in series [2] (pH 14, 1 M NaOH), 0.55 mol/L. Also, the values for the increase in solubility in series [3] (changing the pH from 1.6 to 4.5), in series [3] (changing the pH from 1.6 to 5.0) and in series [3] (changing the pH from 1.6 to 6.5) were 3.4 fold, 7.4 fold and 44.6 fold, respectively. Further, the “effect of pepsin on solubility” value in series [3] (gastric pH) is “no effect”.
